Measured values as given in patent US8580762B2, “Substituted purine and 7-deazapurine compounds” (Epizyme, Inc., priority 2010, dated 2013).

target: DOT1L(1-416) (Homo sapiens, UniProt Q8TEK3); test: Determination of IC50: DOT1L(1-416) methyltransferase assay, 3H-SAM, oligonucleosome substrate, Flashplate; type: biochemical; conditions: class symbols; read-out: DOT1L IC50
Procedure: Determination of IC50. Test compounds were serially diluted 3 fold in DMSO for 10 points and 1 μl was plated in a 384 well microtiter plate. […] 10 μl per well of substrate mix (same assay buffer with 200 nM S-[methyl-^3H]-adenosyl-L methionine, 600 nM of unlabeled […], and 20 nM oligonueleosome) was added to initiate the reaction. Reaction was incubated for 120 minutes at room temperature and quenched with 10 μl per well of 100 μM S-methyl-adenosyl-L methionine. For detection, substrate from 50 μl of reaction was immobilized on a 384 well Streptavidin coated Flashplate (Perkin Elmer) (also coated with 0.2% polyethyleneimine) and read on a Top Count scintillation counter (Perkin Elmer).

Chain of DOT1L(1-416) (Q8TEK3 1-416): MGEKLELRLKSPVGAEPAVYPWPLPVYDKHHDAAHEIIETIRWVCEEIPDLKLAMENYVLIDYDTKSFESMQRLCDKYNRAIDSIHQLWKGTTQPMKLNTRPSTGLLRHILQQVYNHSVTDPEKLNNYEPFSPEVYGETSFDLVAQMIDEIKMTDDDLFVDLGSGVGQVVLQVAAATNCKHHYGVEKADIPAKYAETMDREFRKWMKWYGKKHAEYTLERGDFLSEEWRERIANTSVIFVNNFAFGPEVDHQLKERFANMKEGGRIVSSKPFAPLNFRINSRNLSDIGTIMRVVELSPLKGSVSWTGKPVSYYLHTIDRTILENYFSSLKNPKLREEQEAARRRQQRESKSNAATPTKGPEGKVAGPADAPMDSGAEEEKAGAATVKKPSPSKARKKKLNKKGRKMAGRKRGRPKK

Row | Compound | IC50 [nM]
1 | CC(C)(C)c1ccc2[nH]c(CC[C@H]3C[C@@H](N(CC4CCC4)C[C@H]4C[C@@H](n5ccc6c(N)ncnc65)[C@H](O)[C@@H]4O)C3)nc2c1 [Compound 42, (1R,2S,3R,5R)-3-(4-amino-7H-pyrrolo[2,3-d]pyrimidin-7-yl)-5-((((1r,3S)-3-(2-(5-(tert-butyl)-1H-benzo[d]imidazol-2-yl)ethyl)cyclobutyl)(cyclobutylmethyl)amino)methyl)cyclopentane-1,2-diol] | < 100
2 | CC(C)N(C[C@H]1O[C@@H](n2cnc3c(N)ncnc32)[C@H](O)[C@@H]1O)[C@H]1C[C@H](CCc2nc3cc(C4(C#N)CC4)ccc3[nH]2)C1 [Compound 136, 1-(2-(2-((1R,3s)-3-((((2R,3S,4R,5R)-5-(6-amino-9H-purin-9-yl)-3,4-dihydroxytetrahydro-furan-2-yl)methyl)(isopropyl)amino)cyclobutyl)ethyl)-1H-benzo[d]imidazol-5-yl)cyclo-propanecarbonitrile] | < 100
3 | CC(C)N(CC1CC(Cc2nc3cc(C(F)(F)F)c(Cl)cc3[nH]2)C1)C[C@H]1C[C@@H](n2ccc3c(N)ncnc32)[C@H](O)[C@@H]1O (stereo partly drawn) [Compound 21, (1R,2S,3R,5R)-3-{4-amino-7H-pyrrolo[2,3-d]pyrimidin-7-yl}-5-({[(3-{[6-chloro-5-(trifluoromethyl)-1H-1,3-benzodiazol-2-yl]methyl}cyclobutyl)methyl](propan-2-yl)amino}methyl)cyclopentane-1,2-diol] | 1000 to 10000
4 | CC(C)CN(C[C@H]1C[C@@H](n2ccc3c(N)ncnc32)[C@H](O)[C@@H]1O)[C@H]1C[C@@H](CCc2nc3cc(C(C)(C)C)ccc3[nH]2)C1 [Compound 53, (1R,2S,3R,5R)-3-(4-amino-7H-pyrrolo[2,3-d]pyrimidin-7-yl)-5-((((1r,3S)-3-(2-(5-(tert-butyl)-1H-benzo[d]imidazol-2-yl)ethyl)cyclobutyl)(isobutyl)amino)methyl)cyclopentane-1,2-diol] | < 100
5 | CN(C[C@H]1C[C@@H](n2ccc3c(N)ncnc32)[C@H](O)[C@@H]1O)[C@H]1C[C@H](CCc2nc3cc(C(F)(F)F)c(Cl)cc3[nH]2)C1 [Compound 12, (1R,2S,3R,5R)-3-(4-amino-7H-pyrrolo[2,3-d]pyrimidin-7-yl)-5-((((1s,3R)-3-(2-(6-chloro-5-(trifluoromethyl)-1H-benzo[d]imidazol-2-yl)ethyl)cyclobutyl)(methyl)amino)methyl)cyclopentane-1,2-diol] | < 100
6 | CC(C)N(C[C@H]1O[C@@H](n2cnc3c(N)ncnc32)[C@H](O)[C@@H]1O)[C@H]1C[C@H](CCc2nc3cc(C(C)(C)C#N)ccc3[nH]2)C1 [Compound 129, 2-(2-(2-((1R,3s)-3-((((2R,3S,4R,5R)-5-(6-amino-9H-purin-9-yl)-3,4-dihydroxytetrahydro-furan-2-yl)methyl)(isopropyl)amino)cyclobutyl)ethyl)-1H-benzo[d]imidazol-5-yl)-2-methylpropanenitrile] | < 100
7 | CN(C[C@H]1O[C@@H](n2cnc3c(N)ncnc32)[C@H](O)[C@@H]1O)C1CC(CCc2nc3cc(C4COC4)ccc3[nH]2)C1 (stereo partly drawn) [Compound 64, (2R,3R,4S,5R)-2-(6-amino-9H-purin-9-yl)-5-((methyl(3-(2-(5-(oxetan-3-yl)-1H-benzo[d]imidazol-2-yl)ethyl)cyclobutyl)amino)methyl)tetrahydrofuran-3,4-diol] | 100 to 1000
8 | CN(C[C@H]1C[C@@H](n2ccc3c(N)ncnc32)[C@H](O)[C@@H]1O)C1CC(CCc2nc3cc(OC(F)(F)F)ccc3[nH]2)C1 (stereo partly drawn) [Compound 24, (1R,2S,3R,5R)-3-(4-amino-7H-pyrrolo[2,3-d]pyrimidin-7-yl)-5-((methyl(3-(2-(5-(trifluoromethoxy)-1H-benzo[d]imidazol-2-yl)ethyl)cyclobutyl)amino)methyl)cyclopentane-1,2-diol] | < 100
9 | CN(C[C@H]1O[C@@H](n2cnc3c(N)ncnc32)[C@H](O)[C@@H]1O)C1CC(CCc2nc3cc(C4(C#N)CC4)ccc3[nH]2)C1 (stereo partly drawn) [Compound 130, 1-(2-(2-(3-((((2R,3S,4R,5R)-5-(6-amino-9H-purin-9-yl)-3,4-dihydroxytetrahydro-furan-2-yl)methyl)(methyl)amino)cyclobutyl)ethyl)-1H-benzo[d]imidazol-5-yl)cyclo-propanecarbonitrile] | < 100
10 | CC(C)N(C[C@H]1O[C@@H](n2cnc3c(N)ncnc32)[C@H](O)[C@@H]1O)[C@H]1C[C@@H](CCc2nc3cc(C(C)(C)C#N)ccc3[nH]2)C1 [Compound 128, 2-(2-(2-((1S,3r)-3-((((2R,3S,4R,5R)-5-(6-amino-9H-purin-9-yl)-3,4-dihydroxytetrahydro-furan-2-yl)methyl)(isopropyl)amino)cyclobutyl)ethyl)-1H-benzo[d]imidazol-5-yl)-2-methylpropanenitrile] | < 100
11 | CC(C)N(C[C@H]1C[C@@H](n2ccc3c(N)ncnc32)[C@H](O)[C@@H]1O)C1CC(CCc2nc3cc(C(F)(F)F)c(Cl)cc3[nH]2)C1 (stereo partly drawn) [Compound 20, (1R,2S,3R,5R)-3-(4-amino-7H-pyrrolo[2,3-d]pyrimidin-7-yl)-5-(((3-(2-(6-chloro-5-(trifluoromethyl)-1H-benzo[d]imidazol-2-yl)ethyl)cyclobutyl)(isopropyl)amino)methyl)cyclopentane-1,2-diol] | < 100
12 | CCN(C[C@H]1C[C@@H](n2ccc3c(N)ncnc32)[C@H](O)[C@@H]1O)[C@H]1C[C@H](CCc2nc3cc(C(C)(C)C)ccc3[nH]2)C1 [Compound 49, (1R,2S,3R,5R)-3-(4-amino-7H-pyrrolo[2,3-d]pyrimidin-7-yl)-5-((((1s,3R)-3-(2-(5-(tert-butyl)-1H-benzo[d]imidazol-2-yl)ethyl)cyclobutyl)(ethyl)amino)methyl)cyclopentane-1,2-diol] | < 100
13 | CC(C)N(C[C@H]1O[C@@H](n2cnc3c(N)ncnc32)[C@H](O)[C@@H]1O)C1CC(CCc2nc3cc(C4(C)CC4)ccc3[nH]2)C1 (stereo partly drawn) [Compound 139, (2R,3R,4S,5R)-2-(6-amino-9H-purin-9-yl)-5-((isopropyl(3-(2-(5-(1-methylcyclopropyl)-1H-benzo[d]imidazol-2-yl)ethyl)cyclobutyl)amino)methyl)tetrahydro-furan-3,4-diol] | < 100
14 | CN(C[C@H]1C[C@@H](n2ccc3c(N)ncnc32)[C@H](O)[C@@H]1O)[C@H]1C[C@@H](CCc2nc3cc(C(F)(F)F)ccc3[nH]2)C1 [Compound 10, (1R,2S,3R,5R)-3-(4-amino-7H-pyrrolo[2,3-d]pyrimidin-7-yl)-5-((methyl((1r,3S)-3-(2-(5-(trifluoromethyl)-1H-benzo[d]imidazol-2-yl)ethyl)cyclobutyl)amino)methyl)cyclopentane-1,2-diol] | < 100
15 | CC(C)N(C[C@H]1O[C@@H](n2cnc3c(N)ncnc32)[C@H](O)[C@@H]1O)[C@H]1C[C@H](CCc2nc3cc(C4CCC4)ccc3[nH]2)C1 [Compound 114, (2R,3R,4S,5R)-2-(6-amino-9H-purin-9-yl)-5-((((1s,3R)-3-(2-(5-cyclobutyl-1H-benzo[d]imidazol-2-yl)ethyl)cyclobutyl) (isopropyl)amino)methyl)tetrahydrofuran-3,4-diol] | < 100
16 | CC(C)(C)c1ccc2[nH]c(CC[C@H]3C[C@H](NC[C@H]4O[C@@H](n5cnc6c(N)ncnc65)[C@H](O)[C@@H]4O)C3)nc2c1 [Compound 99, (2R,3R,4S,5R)-2-(6-amino-9H-purin-9-yl)-5-((((1s,3R)-3-(2-(5-(tert-butyl)-1H-benzo[d]imidazol-2-yl)ethyl)cyclobutyl)amino)methyl) tetrahydrofuran-3,4-diol] | < 100
